Data reported in patent publication US20130197023A1, “NEUROPROTECTION BY PHARMACOLOGICAL CHAPERONING OF NICOTINIC ACETYLCHOLINE RECEPTORS” (priority 2012, published 2013).
Where “and” joins values, the source holds several entries; their conditions need not be identical. Equal values may be shown once. Entries after “also recorded” stand apart in the source; their conditions may differ. Read-outs that look alike come from different tables or passages of the source.

Legend:
α4-GFPβ4-WT nAChRs = biological target: T1, α4-GFPβ4-WT nAChRs (Mus musculus, UniProt O70174+Q8R493); assay: Whole-cell patch clamp of ACh currents in cortical neurons transfected with α4-GFPβ4-WT; assay type: cell-based
T1 construct: expressed in transfected cells; host or cells: mouse cortical neurons (primary culture)
T1 sequence (O70174 31-629): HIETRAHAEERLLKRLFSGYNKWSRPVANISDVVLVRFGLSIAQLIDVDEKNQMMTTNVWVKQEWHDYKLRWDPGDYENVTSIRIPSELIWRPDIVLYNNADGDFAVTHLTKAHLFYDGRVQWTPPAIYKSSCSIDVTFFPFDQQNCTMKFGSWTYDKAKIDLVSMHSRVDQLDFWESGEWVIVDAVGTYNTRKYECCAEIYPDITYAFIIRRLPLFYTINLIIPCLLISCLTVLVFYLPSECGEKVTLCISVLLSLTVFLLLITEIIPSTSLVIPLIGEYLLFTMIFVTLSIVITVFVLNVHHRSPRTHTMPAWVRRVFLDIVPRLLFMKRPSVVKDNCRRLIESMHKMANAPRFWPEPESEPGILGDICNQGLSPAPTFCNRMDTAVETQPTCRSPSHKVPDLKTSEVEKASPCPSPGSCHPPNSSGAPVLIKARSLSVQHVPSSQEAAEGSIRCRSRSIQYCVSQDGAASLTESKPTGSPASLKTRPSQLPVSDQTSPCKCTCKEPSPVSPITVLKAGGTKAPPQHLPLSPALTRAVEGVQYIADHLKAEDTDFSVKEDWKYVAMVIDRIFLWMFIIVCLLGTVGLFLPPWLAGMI
T1 sequence (Q8R493 21-495): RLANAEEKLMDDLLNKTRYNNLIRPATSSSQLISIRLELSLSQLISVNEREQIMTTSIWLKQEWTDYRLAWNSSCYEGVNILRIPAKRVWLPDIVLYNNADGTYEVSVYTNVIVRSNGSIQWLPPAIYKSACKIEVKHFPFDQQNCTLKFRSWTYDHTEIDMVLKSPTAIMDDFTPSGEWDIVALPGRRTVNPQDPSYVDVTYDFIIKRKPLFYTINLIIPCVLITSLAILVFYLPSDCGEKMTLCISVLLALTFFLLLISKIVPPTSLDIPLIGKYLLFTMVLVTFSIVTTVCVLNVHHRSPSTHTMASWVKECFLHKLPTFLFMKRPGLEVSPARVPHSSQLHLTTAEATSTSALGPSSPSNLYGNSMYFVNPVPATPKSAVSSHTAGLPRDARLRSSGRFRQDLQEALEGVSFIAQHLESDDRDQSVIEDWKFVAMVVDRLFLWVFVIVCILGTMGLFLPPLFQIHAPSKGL
Description: (§1) To correlate the fluorescence based insertion measurements with electrophysiological measurements, we performed whole-cell patch clamp recording from neurons in the preparation used for our fluorescence experiments, transfected either with α4-GFPβ4-WT or with α4-GFPβ4-R348C nAChRs. The successfully transfected neurons were identified with green fluorescence (FIG. 6. A, D of Richards et al.). Puffs of 300 μM ACh (0.1 s, 20 psi), typically give maximal currents in previous experiments and therefore provide a measure of nAChR number. ACh evoked inward currents in 100% (8/8) and 92% (11/12) of neurons transfected with α4-GFPβ4-WT and α4-GFPβ4-R348C nAChRs, respectively (FIG. 6B, 6E of Richards et al.). The α4-GFPβ4-R348C nAChR currents (120±33 pA, n=12) were only 40% of α4-GFPβ4-WT nAChR currents (310±72 pA, n=8) (p=0.02) (FIG. 6C of Richards et al.). Because variations among the size of neurons could complicate the data, we calculated current density (dividing ACh currents divided by membrane capacitance). The current density of […] (16.3±2.1 pA/pF, n=8) (p=0.001) (FIG. 6F of Richards et al.). Thus in cortical neurons, the R348C mutation produces a fairly consistent ˜2-fold decrease in α4β4-insertion rate and ˜2.5 fold decrease in ACh-induced currents.

α4-GFPβ4-R348C nAChRs = biological target: T2, α4-GFPβ4-R348C nAChRs (Mus musculus, UniProt O70174+Q8R493, R348C); assay: Whole-cell patch clamp of ACh currents in cortical neurons transfected with α4-GFPβ4-R348C; assay type: cell-based
T2 construct: expressed in transfected cells; host or cells: mouse cortical neurons (primary culture)
T2 sequence (O70174 31-629, stated change not applied): as the sequence (O70174 31-629) above
T2 sequence (Q8R493 21-495 R348C): as the sequence (Q8R493 21-495) above, with R328C counted along it
Description: as §1

ATF6 = assay type: cell-based, mouse
Description: (§2) Mouse Neuro-2a cells were cultured using standard tissue culture techniques and maintained in 45% DMEM, 45% OptiMEM and 10% FBS. Plasmid concentrations used for transfection were as follows: 500 ng of each nAChR subunit, 75 ng of pCS2-mcherry, 250 ng of Sec24D constructs, 100 ng of pDsRed2-ER, 250 ng of GaIT-eCFP and 500 ng of ATF6-eGFP. 90,000 cells were plated in poly-D-lysine coated 35 mm MatTek glass bottom imaging dishes. The following day, plasmid DNA was mixed with cationic lipids by adding appropriate DNA concentrations to 4 μl of Expressfect transfection reagent in 200 μl DMEM final volume and incubated for 20 min at room temperature to form cationic lipid-DNA complexes. DMEM+DNA-lipid complexes were added to Neuro-2a cells in 1 ml of DMEM+10% FBS and incubated at 37° C. for 4 h. Dishes were rinsed 2× with DMEM, then filled with 3 ml of DMEM+10% FBS and incubated at 37° C. for 48 h. Nicotine, cytisine or DHβE was added at appropriate concentrations during the change of medium following 4 h incubation with Expressfect-plasmid DNA complexes.

α4-eGFPβ2-wt nAChRs [1] = biological target: T3, α4-eGFPβ2-wt nAChRs (Mus musculus, UniProt O70174+Q9ERK7); assay type: cell-based
T3 construct: expressed in transfected cells; host or cells: mouse Neuro-2a cells
T3 sequence (O70174 31-629): as the sequence (O70174 31-629) above
T3 sequence (Q9ERK7 26-501): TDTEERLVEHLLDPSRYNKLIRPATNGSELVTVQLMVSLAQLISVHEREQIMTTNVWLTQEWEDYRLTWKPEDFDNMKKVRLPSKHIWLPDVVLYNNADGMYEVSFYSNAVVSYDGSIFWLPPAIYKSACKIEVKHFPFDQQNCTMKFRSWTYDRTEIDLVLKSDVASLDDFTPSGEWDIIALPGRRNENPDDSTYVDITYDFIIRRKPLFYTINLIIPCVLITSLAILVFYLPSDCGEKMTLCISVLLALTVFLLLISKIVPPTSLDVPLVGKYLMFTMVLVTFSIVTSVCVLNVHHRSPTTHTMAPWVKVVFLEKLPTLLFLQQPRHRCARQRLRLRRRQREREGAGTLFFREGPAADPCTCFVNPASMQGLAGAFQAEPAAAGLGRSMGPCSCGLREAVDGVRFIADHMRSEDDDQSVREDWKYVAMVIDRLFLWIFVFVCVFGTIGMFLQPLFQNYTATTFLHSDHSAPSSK
Source text: Details of the quantification method have been previously described (Srinivasan et al., 2011). Briefly, PM fluorescence was extracted as follows: Raw TIRF images were converted to background-subtracted images and the ER fluorescence was thresholded and selected. ER fluorescence was then subtracted from the original image to generate images with PM fluorescence signals. These procedures yielded a dataset of several hundred thousand pixel intensities over the 15-50 cells in each experimental group. Fluorescence intensities are simply the sum of pixel values for either the PM or the ER or the ER+PM (using whole TIRF footprint images). Mean PM fluorescence intensity was derived by dividing the total fluorescence intensity for each experimental group by the number of imaged cells and normalized to intensity of untreated cells. Ratios of fluorescence intensities for the whole TIRF footprint (ER+PM) to ER were used to determine the post-Golgi fraction of receptors. For PM integrated density measurements, rather than plotting SEMs (which would be indistinguishably small on the plots), we have used “error bars” to depict 99% confidence intervals based on a two-tailed t-test. Measurements from drug treated cells were normalized to values of untreated cells imaged on the same day. DHβE TIRF experiments were performed on a different day from nicotine and cytisine experiments.

α4-eGFPβ2-wt nAChRs [2] = biological target: T3, α4-eGFPβ2-wt nAChRs; assay type: cell-based; remark: listed apart in the source
Description: Neuro-2a cells were plated on 12 mm glass coverslips within 35 mm plastic bottom cell culture dishes. The following day, cells were transfected with 500 ng α4-eGFP and 500 ng β2-wt nAChR subunits. 24 to 48 hr later, glass coverslips were transferred to dishes on the microscope stage. Green fluorescence was visualized with an upright microscope (BX50WI, Olympus) and UV illumination with appropriate excitation filters. Agonist-induced currents were tested at a holding potential of −65 mV using a focal, relatively rapid drug application system designed to minimize desensitization (Xiao et al., 2009). We applied drugs from the lowest to highest concentration at 3 min intervals to minimize desensitization. Whole-cell patch-clamp recordings were with a MultiClamp 700B amplifier, a 1322 analog-to-digital converter, and pCLAMP 9.2 software (all from Axon Instruments, Molecular Devices). Data were sampled at 10 kHz and filtered at 2 kHz.
The intrapipette solution contained (in mM): 135 potassium gluconate, 5 KCl, 5 EGTA, 0.5 CaCl2, 10 HEPES, 2 Mg-ATP, and 0.1 GTP; the pH was adjusted to 7.2 with Tris base and the osmolarity to 300 mOsm with sucrose. The extracellular solution contained (in mM): 140 NaCl, 5 KCl, 2 CaCl2, 1 MgCl2, 10 HEPES, and 10 glucose; pH was adjusted to 7.3 with Tris base. The Nernst potential for Cl^− in the intrapipette solution is −82.9 mV. The bath was continuously perfused with extracellular solution (ECS) at room temperature (23±1° C.). The patch electrodes had resistances of 5 to 8 MΩ. The junction potential between the patch pipette and the bath solutions was nulled just before forming a gΩ seal. Series resistance was monitored and compensated by 70-80% throughout recordings. The data were ignored if the series resistance (15-30 MΩ) changed by >20% during the recording session.

α4β2 nAChRs = α4β2 nAChRs (Mus musculus, UniProt O70174+Q9ERK7)
α4β2 nAChRs, sequence (O70174 31-629): as the sequence (O70174 31-629) above
α4β2 nAChRs, sequence (Q9ERK7 26-501): as the sequence (Q9ERK7 26-501) above
Source text: For NFRET experiments, Neuro-2a cells were transfected with GaIT-eCFP+α4-mcherry+β2-eGFP subunits. GaIT-eCFP was used to label the TG, TGN (Schaub et al., 2006). Cells transfected with α4-mcherryβ2wt or α4wtβ2-eGFP nAChRs were included in every imaging session to control for pixel saturation and spectral bleedthrough. Live cells were imaged using an Eclipse C1si laser scanning confocal microscope. During image acquisition, cells were focused to a plane where the GaIT-eCFP fluorescence was best visualized. Images with emission spectra for eCFP, eGFP and mcherry were acquired in 5-nm bins between 470 and 620 nm. 439, 488 and 561 nm laser lines were used to excite eCFP, eGFP and mcherry respectively. Images were linearly unmixed using reference spectra for eCFP, eGFP and mcherry with emission maxima at 477, 508 and 608 nm. Reference spectra were acquired from Neuro-2a cells transfected with either GaIT-eCFP or α4-mcherryβ2wt or α4wtβ2-eGFP during the same imaging session. Linear unmixing was used to separate all three emission spectra from each image. Linearly unmixed images were compiled into donor spectral bleed-through stacks, acceptor spectral bleed-through stacks, and sample image stacks.
The PixFRET ImageJ plugin was used to determine the eGFP and mcherry spectral bleedthrough (BT) values and to calculate the net FRET (nF) (equation 1) and normalized FRET (NFRET) at each pixel. With the background and bleed-through corrections set, the nF for each pixel as described by equation 1 was calculated and the data were presented as 32-bit images. nF was divided by the square root of eGFP and mcherry intensities (equation 2) to obtain the normalized FRET (NFRET) value at each pixel. FRET normalization was used to control for large differences in fluorophore expression within subcellular regions and between different cells in a dish.
where, nF=net FRET, IFRET=mcherry sensitized emission with 488 nm excitation, IeGFP=eGFP emission with 488 nm excitation, BTeGFP=spectral bleedthrough of eGFP emission into mcherry emission spectra at 488 nm excitation, Imcherry=mcherry emission with 561 nm excitation and BTmcherry=spectral bleedthrough of mcherry emission into eGFP emission spectra at 561 nm excitation. IFRET, IeGFP and Imcherry were obtained from Neuro-2a cells transfected with GaIT-eCFP+α4-mcherry+β2-eGFP. BTeGFP and BTmcherry values were obtained from Neuro-2a cells transfected with α4-mcherry+β2wt and α4wt+β2-eGFP respectively.
Histograms of NFRET (x-axis) versus number of pixels (y-axis) of each imaged cell were compiled for either the whole cell sections or the TG, TGN ROIs, demarcated by intensity-based thresholding of GaIT-eCFP fluorescence. Frequency histograms obtained in this way (omitting values of zero) were merged for all cells in each experimental group and fitted to two Gaussian components such that a minimum goodness of fit (R^2) value of 0.995 was achieved. Ratios of area under the curve for the two Gaussian components with high and low mean NFRET values were used to determine changes in receptor stoichiometry between experimental groups: NFRET histograms were fitted to Gaussian components, yielding the total pixel area under either the A1 (low mean NFRET fit) or A2 (high mean NFRET fit) components. For quantitative measurements of stoichiometry, we compared the fractional area (FA) for the low NFRET component in each case as given by the following equation:
where, FA=fractional area, A1=area under the curve for low mean NFRET Gaussian component and A2=area under the curve for high mean NFRET Gaussian component.
Due to variability resulting from cell passage number, we imaged untreated control cells on the same day to compare and evaluate the effects of drug exposure on stoichiometry.

Neuro-2a cells [3] = assay type: cell-based, mouse
Description: (§3) Neuro-2a cells were transfected with α4-eGFP (500 ng)+β2wt (500 ng)+GaIT-mcherry (250 ng) or pDSred2-ER (100 ng) and cells were incubated for 48 h with appropriate concentrations of nicotine, cytisine or DHβE.
In ImageJ, background was subtracted, and DSred2-ER fluorescence was thresholded and demarcated for each cell.

ER exit sites (ERES) = assay type: cell-based, mouse
Description: as §2
Neuro-2a cells were co-transfected with 500 ng each of α4-mcherry and β2-wt nAChR subunits and 250 ng of the ERES marker, Sec24D-eGFP. Each cell was focused to a plane where the maximum ERES were visualized. Sequential images of eGFP and mcherry fluorescence were obtained and linearly unmixed. For quantification, ERES regions of interest (ROIs) were demarcated using intensity-based thresholding and counted for each cell using the particle analysis feature in ImageJ version 1.44 or later. The fluorescence intensity was obtained for each ERES body within the cells and average ERES intensity was plotted. Error bars for ERES measurements are ±standard error of mean (SEM) and p values are based on a 2-tailed t test.

Neuro-2a cells [4] = assay type: cell-based, mouse; remark: listed apart in the source
Description: as §3
Two color fluorescence signals were separated with a dichroic and optical filters aligned in the emission path where green and red emission was separately aligned to the two halves of an EMCCD. Post-acquisition processing of images used Metamorph to demarcate TGN bodies and to extract number, size and intensity statistics.

NMDA receptor = details: in vivo; cited from earlier work
[5] = compared to untreated cells, 48 h exposure
[6] = compared with untreated cells, 48 h

CC(=O)OCC[N+](C)(C)C [ACh]
ACh evoked inward currents (α4-GFPβ4-WT nAChRs; 300 μM ACh puffs (0.1 s, 20 psi), α4-GFPβ4-WT): 310±72 pA | neurons in which ACh evoked inward currents (α4-GFPβ4-WT nAChRs; 300 μM ACh, α4-GFPβ4-WT (8/8)): 100% | current density (ACh currents divided by membrane capacitance) (α4-GFPβ4-WT nAChRs; 300 μM ACh, α4-GFPβ4-WT as printed): 6.3±1.4 pA/pF | ACh evoked inward currents (α4-GFPβ4-R348C nAChRs; 300 μM ACh puffs (0.1 s, 20 psi), α4-GFPβ4-R348C): 120±33 pA | neurons in which ACh evoked inward currents (α4-GFPβ4-R348C nAChRs; 300 μM ACh, α4-GFPβ4-R348C (11/12)): 92% | current density (ACh currents divided by membrane capacitance) (α4-GFPβ4-R348C nAChRs; 300 μM ACh, α4-GFPβ4-R348C as printed): 16.3±2.1 pA/pF

O=c1cccc2n1C[C@@H]1CNC[C@H]2C1 [Cytisine, cytisine]
reduction in the ratio of nuclear to whole cell ATF6-eGFP fluorescence (ATF6): ~25% | increase in PM-localized nAChRs (α4-eGFPβ2-wt nAChRs [1]): 3 fold and ~3.5 fold | increase in the footprint/ER ratio (α4-eGFPβ2-wt nAChRs [1]): ~1.5 fold and ~2 fold | evoked currents as % of maximum currents induced by 500 μM nicotine (α4-eGFPβ2-wt nAChRs [2]): < 0.1% | fraction of the total receptor population activated (α4-eGFPβ2-wt nAChRs [2]): < 0.1% | TG+TGN FA (fractional area of low NFRET component) (α4β2 nAChRs): 0.42 | whole cell FA (fractional area of low NFRET component) (α4β2 nAChRs): 0.30 | effect on peripheral ER area (in words) (Neuro-2a cells [3]): reduced | reduction in the average ER area (Neuro-2a cells [3]): ~1.4 fold | increase in ERES fluorescence / formation of ERES (ER exit sites (ERES)): ~2 fold | Number of TGN bodies (Neuro-2a cells [4]): no effect | effect on the average intensity of TGN bodies (in words) (Neuro-2a cells [4]): significantly reduced | effect on the number of TGN bodies (in words) (Neuro-2a cells [4]): failed to significantly affect

CO[C@H]1CC=C2CCN3CCC4=C(CC(=O)OC4)[C@]23C1 [DHβE, dihydro-β-erythroidine]
reduction in the ratio of nuclear to whole cell ATF6-eGFP fluorescence (ATF6; 10 or 100 μM, 48 h (both concentrations)): ~23% | effect on the footprint/ER ratio (in words) (α4-eGFPβ2-wt nAChRs [1]; [5]): no marked effects | increase in the footprint/ER ratio (α4-eGFPβ2-wt nAChRs [1]; [5]): ~1.5 fold | effect on PM-localized nAChRs (in words) (α4-eGFPβ2-wt nAChRs [1]; compared to untreated controls, 48 h exposure): small, but significant increase; also recorded: no marked effects | nAChR activation (in words) (α4-eGFPβ2-wt nAChRs [2]): activates no receptors | TG+TGN FA (fractional area of low NFRET component) (α4β2 nAChRs; 10 μM DHβE, untreated cells 0.53): 0.37 | whole cell FA (fractional area of low NFRET component) (α4β2 nAChRs; 10 μM DHβE, untreated cells 0.54): 0.45 | effect on nAChR stoichiometry (α4β2 nAChRs; concentrations ranging from 0.1 to 1 μM): did not affect | effect on peripheral ER area (in words) (Neuro-2a cells [3]; compared to untreated controls, 48 h): did not significantly affect | increase in ERES fluorescence / formation of ERES (ER exit sites (ERES); compared to untreated control cells, co-expressed nAChRs): ~2 fold | effect on the average intensity of TGN bodies (in words) (Neuro-2a cells [4]; [6]): significantly reduced | effect on the number of TGN bodies (in words) (Neuro-2a cells [4]; [6]): failed to significantly affect

CNC1(c2ccccc2Cl)CCCCC1=O (centres unmarked) [ketamine]
time within which antidepressant effects become established (NMDA receptor): 1 to 2 h
